Source: US9321742B2, “N1-cyclic amine-N5-substituted biguanide derivatives, methods of preparing the same and pharmaceutical composition comprising the same” (IMMUNOMET THERAPEUTICS INC., priority 2011, dated 2016)

Experiments:
[1] = test system: HCT116 cells; assay: Measurement of effect of inhibiting cancer cell proliferation (MTT); format: cell-based; settings: Homo sapiens; for inhibition at 100 µM: HCT-116, 100 uM, 48 hours, read-out: Cell Growth Inhibition (%) at 100 uM; for GI50: HCT-116, 48 hours
From the text: HCT116 cells derived from human colorectal cancer (commercially available from the Korean Cell Line Bank) were used, and the effect of inhibiting cancer cell proliferation of the biguanide derivative was confirmed by measuring the concentration value (cell growth inhibition concentration, GIC50) at which cell growth was inhibited by 50% using a 3-(4,5-dimethylthiazol-2-yl)-2,5-[…] bromide (MTT) reagent.
First, HCT116 cells were put on a 96-well plate and cultured in a DMEM medium containing 10% fetal bovine serum for 16 hours so that the cellcount in each well was approximately 5,000. Subsequently, to obtain the GIC50 value of each compound, culture media were treated with 100 μM, 25 μM, 6.25 μM, 1.56 μM or 0.39 μM of the compound, and then cultured for 48 hours. At this time, some of the compounds were treated with 200 μM instead of 100 μM. Metformin hydrochloride was used as the control, and the culture media were treated with 25, 12.5, 2.5, 0.5, 0.1 mM metformin hydrochloride, and then tested in the same manner as described in the derivatives synthesized in the examples. In order to determine whether the cells survived after treatment with the compound, MTT was added to the culture media which were then cultured for another 3 hours. Formed formazane crystals were dissolved using dimethyl sulfoxide (DMSO), and the absorbance of the resulting solution was measured at 560 nm. After the 48-hours culture, the ratio of the cell count cultured on a well plate not treated with the compound to the living cell count on a well plate treated with the compounds synthesized in the examples was indicated as cell viability (%) according to each treated concentration. A cell viability curve graph was plotted and the concentration (GIC50) value of the compound at which the growth was inhibited by 50% was calculated to confirm the effect of inhibition of cancer cell proliferation. Also, the cell growth viability (%) when the concentration of the treated biguanide derivative and the metformin hydrochloride as the control were 100 uM was shown.

[2] = test system: AMPKα; assay: Measurement of AMPK-activation effect (AMPKα Thr172 phosphorylation immunoassay in MCF7 cells); format: cell-based, human; settings: 24 hours; for AMPK activation effect 10 uM (%) / AMPK activation effect 50 uM (%): relative to untreated cells
Procedure: MCF7 cells derived from human breast cancer cells (commercially available from the Korean Cell Line Bank) were used, and the AMPK (5′-AMP-activated protein kinase alpha)-activation effect of the biguanide derivative was confirmed using an AMPKα immunoassay kit (Invitrogen, Catalog No. KH00651).
MCF7 cells were cultured in a DMEM medium supplemented with 10% fetal bovine serum. Thereafter, the cultured MCF7 cells were put into a 6-well plate with approximately 5×10^5 cells per well and cultured in an incubator supplied with 5% CO2. Culture media were treated with the derivatives synthesized in the examples at contents of 5, 10 and 50 μM, and then cultured for 24 hours. Metformin hydrochloride was used as the control, and the culture media were treated with 0.05, 0.5, 1, 2, 5 and 10 mM metformin hydrochloride, and then tested in the same manner as described in the derivatives synthesized in the examples. Subsequently, the cells were lysed according to a method presented in the operation manual of the AMPKα immunoassay kit, and 20 μg of a cell lysate was then yielded through protein assay. Thereafter, the AMPK activation effect was obtained by determining the degree of phosphorylation of 172nd threonine residue (Thr172) of the AMPKα from the cell lysate according to the method presented in the operation manual of the AMPKα immunoassay kit. […] A curve graph showing AMPK activation according to the concentration of the treated compounds was plotted based on the obtained AMPKα activation results, the concentration (activation concentration 150, AC150) value of the compound whose AMPK activation reached 150% was calculated using a GraphPad Prism 5.0 program, and the degrees of AMPK activation were obtained when concentrations of the treated biguanide derivatives were 10 μM and 50 μM and the metformin hydrochloride was 50 μM.

| Structure (SMILES) | inhibition at 100 µM [1] | GI50 [1] | melting point | AMPK activation effect 10 uM (%) [2] | AMPK activation effect 50 uM (%) [2] | AC150 (concentration at which AMPK activation reached 150%) [2] |
| --- | --- | --- | --- | --- | --- | --- |
| COc1ccc(CNC(=N)NC(=N)N2CCCCC2)cc1.Cl [Example 28, N1-piperidine-N5-(4-methoxy)benzyl biguanide hydrochloride] | 28.3% | > 100 µM | 213 to 214 °C | 258% | 628% | 3.9 µM |
| Cl.N=C(NCc1ccc(F)cc1)NC(=N)N1CCCCC1 [Example 30, N1-piperidine-N5-(4-fluoro)benzyl biguanide hydrochloride] | 47% | > 100 µM | 250 to 251 °C | 143% | 278% | 13.1 µM |
| Cl.N=C(NCc1ccc(Cl)cc1)NC(=N)N1CCCC1 [Example 31, N1-pyrrolidine-N5-(4-chloro)benzyl biguanide hydrochloride] | 65.9% | 17.6 µM | 250 to 251 °C | 304% | 776% | 2.3 µM |
| Cl.N=C(NCc1ccc(Cl)cc1)NC(=N)N1CCCCCC1 [Example 33, N1-azepane-N5-(4-chloro)benzyl biguanide hydrochloride] | 25.3% | 4.9 µM | 222 to 223 °C | – | 443% | 1.2 µM |
| Cl.N=C(NCc1ccc(Br)cc1)NC(=N)N1CCCC1 [Example 34, N1-pyrrolidine-N5-(4-bromo)benzyl biguanide hydrochloride] | 97.3% | 92.8 µM | 267 to 268 °C | 467% | 639% | 42.4 µM |
| Cl.N=C(NCc1ccc(Br)cc1)NC(=N)N1CCCCC1 [Example 35, N1-piperidine-N5-(4-bromo)benzyl biguanide hydrochloride] | 53.8% | 23.2 µM | 261 to 262 °C | 140% | 150% | 1.1 µM |
| Cl.N=C(NCc1cccc(C(F)(F)F)c1)NC(=N)N1CCOCC1 [Example 36, N1-morpholine-N5-(3-trifluoromethyl)benzyl biguanide hydrochloride] | 97.2% | > 100 µM | 211 to 212 °C | 516% | 656% | >50 µM |
| Cl.N=C(NCc1ccc(C(F)(F)F)cc1)NC(=N)N1CCC1 [Example 37, N1-azetidine-N5-(4-trifluoromethyl)benzyl biguanide hydrochloride] | 23.5% | 39.3 µM | 260 to 261 °C | 100% | 107% | 24.2 µM |
| Cl.N=C(NCc1ccc(C(F)(F)F)cc1)NC(=N)N1CCCC1 [Example 38, N1-pyrrolidine-N5-(4-trifluoromethyl)benzyl biguanide hydrochloride] | 61.6% | 32.4 µM | 268 to 270 °C | 116% | 213% | 1.4 µM |
| Cl.N=C(NCc1ccc(OC(F)(F)F)cc1)NC(=N)N1CCC1 [Example 40, N1-azetidine-N5-(4-trifluoromethoxy)benzyl biguanide hydrochloride] | 97.8% | 36.9 µM | 182 to 184 °C | 673% | 1076% | 3.9 µM |
| Cl.N=C(NCc1ccc(OC(F)(F)F)cc1)NC(=N)N1CCCC1 [Example 41, N1-pyrrolidine-N5-(4-trifluoromethoxy)benzyl biguanide hydrochloride] | 97.4% | 25.6 µM | 242 to 243 °C | 242% | 698% | 0.9 µM |
| Cl.N=C(NCc1ccc(OC(F)(F)F)cc1)NC(=N)N1CCCCC1 [Example 42, N1-piperidine-N5-(4-trifluoromethoxy)benzyl biguanide hydrochloride] | 96.8% | 16.2 µM | 268 to 269 °C | 472% | 554% | 0.8 µM |
| Cl.N=C(NCc1ccc(F)c(C(F)(F)F)c1)NC(=N)N1CCCCC1 [Example 44, N1-piperidine-N5-(4-fluoro-3-trifluoromethyl)benzyl biguanide hydrochloride] | 32.6% | 15.2 µM | 232 to 235 °C | 180% | 383% | 10.3 µM |
| Cl.N=C(NCc1ccc(Cl)c(C(F)(F)F)c1)NC(=N)N1CCCCC1 [Example 45, N1-piperidine-N5-(4-chloro-3-trifluoromethyl)benzyl biguanide hydrochloride] | 96.9% | 8.2 µM | 259 to 261 °C | 162% | 232% | 1.7 µM |
| Cl.N=C(NCc1ccc(C(F)(F)F)c(F)c1)NC(=N)N1CCCCC1 [Example 46, N1-piperidine-N5-(3-fluoro-4-trifluoromethyl)benzyl biguanide hydrochloride] | 101% | 21.3 µM | 264 to 266 °C | 331% | 389% | 1.1 µM |
| Cl.N=C(NCc1ccc(C(F)(F)F)c(Cl)c1)NC(=N)N1CCCCC1 [Example 47, N1-piperidine-N5-(3-chloro-4-trifluoromethyl)benzyl biguanide hydrochloride] | 100% | 7.4 µM | 254 to 256 °C | 433% | 384% | 4.4 µM |
| Cl.N=C(NCc1ccc(F)c(OC(F)(F)F)c1)NC(=N)N1CCCCC1 [Example 48, N1-piperidine-N5-(4-fluoro-3-trifluoromethoxy)benzyl biguanide hydrochloride] | 96.4% | 13.4 µM | 233 to 235 °C | 244% | – | 18.2 µM |
| Cl.N=C(NCc1ccc(OC(F)(F)F)c(F)c1)NC(=N)N1CCCCC1 [Example 49, N1-piperidine-N5-(3-fluoro-4-trifluoromethoxy)benzyl biguanide hydrochloride] | 97% | 9.2 µM | 266 to 268 °C | 158% | 147% | 0.8 µM |
| Cl.N=C(NCc1ccc(OC(F)(F)F)c(Cl)c1)NC(=N)N1CCCCC1 [Example 50, N1-piperidine-N5-(3-chloro-4-trifluoromethoxy)benzyl biguanide hydrochloride] | 97% | 5.7 µM | 240 to 241 °C | 259% | – | 8.8 µM |
